Measurements from patent US9561228B2 (Celgene Avilomics Research, Inc., priority 2013, dated 2017).

Experiments:
Type in all cases: cell-based
[1] = test system: A375 cells (malignant melanoma); test: Inhibition of cancer cell proliferation, A375 (CellTiterGlo, 72 hours); details: Homo sapiens, A-375
Summary of the method: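 GI50 derived from % growth inhibition relative to untreated wells, after luminescence (CellTiterGlo, 10 min) was converted to cell counts using a standard curve. Compound given as 3-fold dilutions from a 2× 5,000 nM stock in serum-free DMEM; 3000 A375 cells/well, 72 h culture at 37 °C.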

[2] = test system: HCT116 cells (colorectal carcinoma); test: Inhibition of cancer cell proliferation, HCT116 (CellTiterGlo, 72 hours); details: Homo sapiens, HCT-116
Summary of the method: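 3000 cells per well exposed to 3-fold serial compound dilutions from 5,000 nM (two-fold solution, stock level) for 72 hours at 37° C. CellTiterGlo luminescence converted to cell number via a standard curve; percent inhibition vs untreated wells, GI50 by curve fit.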

[3] = test system: HT-29 cells (colorectal adenocarcinoma); test: Inhibition of cancer cell proliferation, HT-29 (CellTiterGlo, 72 hours); details: Homo sapiens
Summary of the method: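 Proliferation over 72 h at 37° C was read by CellTiterGlo luminescence, translated to cell counts with a cell-density standard curve (390–50,000 cells). Compound added as 3-fold dilutions from a 5,000 nM two-fold stock to 3000 seeded HT-29 cells; GI50 from percent inhibition relative to untreated wells.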

| SMILES | GI50 [1] [nM] | GI50 [2] [nM] | GI50 [3] [nM] |
| --- | --- | --- | --- |
| C=CC(=O)Nc1cc(C)ccc1Nc1nc(Nc2nc(O)ncc2C)ncc1C(F)(F)F [Compound I-364, N-(2-((2-((2-hydroxy-5-methylpyrimidin-4-yl)amino)-5-(trifluoromethyl)pyrimidin-4-yl)amino)-5-methylphenyl)acrylamide] | < 100 | 101 to 500 | 101 to 500 |
| C=CC(=O)Nc1cc(C)ccc1Nc1nc(Nc2cc(OCCOC)ncc2C)ncc1C(F)(F)F [Compound I-359, N-(2-((2-((2-(2-methoxyethoxy)-5-methylpyridin-4-yl)amino)-5-(trifluoromethyl)pyrimidin-4-yl)amino)-5-methylphenyl)acrylamide] | 101 to 500 | > 1000 | 501 to 999 |
| C=CC(=O)Nc1cc(CN2CCN(C(C)=O)CC2)ccc1Nc1nc(Nc2cc(OC)ncc2C)ncc1C(F)(F)F [Compound I-381, N-(5-((4-acetylpiperazin-1-yl)methyl)-2-((2-((2-methoxy-5-methylpyridin-4-yl)amino)-5-(trifluoromethyl)pyrimidin-4-yl)amino)phenyl)acrylamide] | 101 to 500 | 101 to 500 | 101 to 500 |
| C=CC(=O)Nc1cc(C)ccc1Nc1nc(Nc2cc(OCCO)ncc2C)ncc1C(F)(F)F [Compound I-376, N-(2-((2-((2-(2-hydroxyethoxy)-5-methylpyridin-4-yl)amino)-5-(trifluoromethyl)pyrimidin-4-yl)amino)-5-methylphenyl)acrylamide] | 101 to 500 | 501 to 999 | 101 to 500 |
| C=CC(=O)Nc1cc(C)ccc1Nc1nc(Nc2nc(OC)ncc2C(F)(F)F)ncc1C(F)(F)F [Compound I-355, N-(2-((2-((2-methoxy-5-(trifluoromethyl)pyrimidin-4-yl)amino)-5-(trifluoromethyl)pyrimidin-4-yl)amino)-5-methylphenyl)acrylamide] | 101 to 500 | > 1000 | 501 to 999 |
| C=CC(=O)Nc1cc(C)ccc1Nc1nc(Nc2cc(C(C)=O)ccc2C)ncc1C(F)(F)F [Compound I-84, N-(2-((2-((5-Acetyl-2-methylphenyl)amino)-5-(trifluoromethyl)pyrimidin-4-yl)amino)-5-methylphenyl)acrylamide] | 101 to 500 | 501 to 999 | 101 to 500 |
| C=CC(=O)Nc1cc(CN2CCN(S(C)(=O)=O)CC2)ccc1Nc1nc(Nc2cc(OC)ncc2C)ncc1C(F)(F)F [Compound I-384, N-(2-((2-((2-methoxy-5-methylpyridin-4-yl)amino)-5-(trifluoromethyl)pyrimidin-4-yl)amino)-5-((4-(methylsulfonyl)piperazin-1-yl)methyl)phenyl)acrylamide] | < 100 | 101 to 500 | < 100 |
| C=CC(=O)Nc1cc(C)c(F)cc1Nc1nc(Nc2nc(OC)ncc2C)ncc1C(F)(F)F [Compound I-377, N-(4-fluoro-2-((2-((2-methoxy-5-methylpyrimidin-4-yl)amino)-5-(trifluoromethyl)pyrimidin-4-yl)amino)-5-methylphenyl)acrylamide] | 101 to 500 | > 1000 | < 100 |
| C=CC(=O)Nc1cc(C)ccc1Nc1nc(Nc2cc(OC)nc(N3CCN(C(C)=O)CC3)c2)ncc1C(F)(F)F [Compound I-93, N-(2-((2-((2-(4-Acetylpiperazin-1-yl)-6-methoxypyridin-4-yl)amino)-5-(trifluoromethyl)pyrimidin-4-yl)amino)-5-methylphenyl)acrylamide] | < 100 | < 100 | < 100 |
| C=CC(=O)Nc1cc(CN2CCN(C(=O)c3cnccn3)CC2)ccc1Nc1nc(Nc2cc(OC)ncc2C)ncc1C(F)(F)F [Compound I-390, N-(2-((2-((2-methoxy-5-methylpyridin-4-yl)amino)-5-(trifluoromethyl)pyrimidin-4-yl)amino)-5-((4-(pyrazine-2-carbonyl)piperazin-1-yl)methyl)phenyl)acrylamide] | < 100 | 101 to 500 | < 100 |
| C=CC(=O)Nc1cc(C)ccc1Nc1nc(Nc2nc(OC)ncc2C#N)ncc1C(F)(F)F [Compound I-346, N-(2-((2-((5-cyano-2-methoxypyrimidin-4-yl)amino)-5-(trifluoromethyl)pyrimidin-4-yl)amino)-5-methylphenyl)acrylamide] | 101 to 500 | 501 to 999 | 101 to 500 |
| C=CC(=O)Nc1cc(C)ccc1Nc1nc(Nc2ccnc3ccccc23)ncc1C(F)(F)F [Compound I-379, N-(5-methyl-2-((2-(quinolin-4-ylamino)-5-(trifluoromethyl)pyrimidin-4-yl)amino)phenyl)acrylamide] | 101 to 500 | 101 to 500 | 101 to 500 |
| C=CC(=O)Nc1cc(C)ccc1Nc1nc(Nc2nc(OC)ncc2OC)ncc1C(F)(F)F [Compound I-349, N-(2-((2-((2,5-dimethoxypyrimidin-4-yl)amino)-5-(trifluoromethyl)pyrimidin-4-yl)amino)-5-methylphenyl)acrylamide] | 101 to 500 | > 1000 | 101 to 500 |
| C=CC(=O)Nc1cc(C)ccc1Nc1nc(Nc2nc(OC)ncc2Cl)ncc1C(F)(F)F [Compound I-344, N-(2-((2-((5-chloro-2-methoxypyrimidin-4-yl)amino)-5-(trifluoromethyl)pyrimidin-4-yl)amino)-5-methylphenyl)acrylamide] | 101 to 500 | 501 to 999 | 101 to 500 |
| C=CC(=O)Nc1cc(C)c(F)cc1Nc1nc(Nc2nc(OC)ncc2Cl)ncc1C(F)(F)F [Compound I-374, N-(2-((2-((5-chloro-2-methoxypyrimidin-4-yl)amino)-5-(trifluoromethyl)pyrimidin-4-yl)amino)-4-fluoro-5-methylphenyl)acrylamide] | < 100 | 101 to 500 | 101 to 500 |
| C=CC(=O)Nc1cc(C)ccc1Nc1nc(Nc2nc(OC)ncc2F)ncc1C(F)(F)F [Compound I-357, N-(2-((2-((5-fluoro-2-methoxypyrimidin-4-yl)amino)-5-(trifluoromethyl)pyrimidin-4-yl)amino)-5-methylphenyl)acrylamide] | 101 to 500 | 501 to 999 | < 100 |
| C=CC(=O)Nc1cc(C)ccc1Nc1nc(Nc2ncc(C(F)(F)F)c(OC)n2)ncc1C(F)(F)F [Compound I-354, N-(2-((2-((4-methoxy-5-(trifluoromethyl)pyrimidin-2-yl)amino)-5-(trifluoromethyl)pyrimidin-4-yl)amino)-5-methylphenyl)acrylamide] | 501 to 999 | 501 to 999 | 101 to 500 |
| C=CC(=O)Nc1ccccc1Nc1nc(Nc2cc(OC)ncc2C)ncc1C(F)(F)F [Compound I-85, N-(2-((2-((2-Methoxy-5-methylpyridin-4-yl)amino)-5-(trifluoromethyl)pyrimidin-4-yl)amino)phenyl)acrylamide] | < 100 | 101 to 500 | < 100 |
